According to patent US20110230367A1, “Amphiphilic Peptides Promoting Production of Target miRNA and Method of Regulating Production of Target miRNA” (SNU R&DB FOUNDATION, priority 2009, published 2011):

Assays:
[1] = test system: mature let7a-1 in HCT116 cells; experiment: Production of mature miRNA in HCT116 cells by northern blotting; type: cell-based; details: 2 μM peptide, 3 hrs, FIG. 4
Protocol: (§1) The HCT116 cell was purchased from American Type Culture Collection (ATCC) and was cultured in RPMI1640 medium at 37° C., under 5% CO2. Total RNA was extracted using Trizol reagent (Invitrogen) according to the manufactures recommended protocol.
(§2) The change in RNA amount was analyzed by culturing the cells with 2 μM concentration of peptide 2b or peptide 2c and with lipofectamine.
(§3) HCT116 cells were treated with 2 μM of peptide 2b, 2c, 1e or 0.2 μg/ml of doxorubicin for 3 hrs before analyzing the production of mature miRNA in total RNA using northern blotting. The 18S rRNA band intensity was used as the loading control. […] Peptide 1e was used as a negative control. Decade marker (Ambion) and 10˜20 μg of total RNA were separated by using 12.5% polyacrylamide gel containing 7M urea in 20 mM of 3-(N-morpholino)propanesulfonic acid (MOPS)-NaOH(pH 7.0) buffer at 350V for 2 hrs. RNA blotting was performed by chemical cross-linking method. Each of the separated RNA was transferred with the neutral nylon membrane (Hybond NX, Amersham/Pharmacia) and crosslinked to the membrane using 1-ethyl-3-(3-dimethylaminopropyl)carbodiimide (EDC). The membrane was prehybridized with the hybridization buffer (Clontech, CA, USA) containing 50 μl of 10 mg/ml of salmon sperm DNA. Next, the isotope labeled probe DNA which is complementary to the miRNA sequence was hybridized for 2 hrs in the same buffer condition.
(§4) The probe was isotope labeled with 25 μCi of [γ-^32P] ATP (New England Biolabs) and 5 units of polynucleotide kinase (New England Biolabs). The probe was ethanol precipitated and dissolved in 50 μl of DEPC treated water for use. The membrane was washed twice for 30 min with 200 ml of wash buffer containing 0.3 M NaCl, 0.03 M sodium citrate and 0.05% sodium dodecyl sulfate (SDS)(pH 7.0), then washed twice for 15 min with 200 ml of wash buffer containing 0.015 M NaCl, 0.0015 M sodium citrate and 0.1% SDS(pH 7.0). The membrane was exposed on the phosphorimager screen and each of the band intensity was detected by FLA-3000 and analyzed by using MultiGauge Ver. 3.0 software (Fuji Photo).

[2] = test system: mature miR16-1 in HCT116 cells; experiment: as above; type: cell-based; details: 2 μM peptide, 3 hrs, FIG. 4
Protocol: as §1, §2, §3, §4

Sequence	level of mature let7a-1 [1]	level of mature miR16-1 [2]
WKKLLKLLKKWLKLAG [Peptide 2c, Ac-WKKLLKLLKKWLKLAG, 14]	increased	–
WKKLLKWLKKLLKLAG [Peptide 2b, Ac-WKKLLKWLKKLLKLAG, 13]	significant increase	increased
